For this assay, the system named is PBMCs from HCMV seropositive subjects. In words: ex vivo IFN-γ Fluorospot assay. The class given is cell-based, human. The conditions noted are these: 19 HCMV seropositive subjects, individual peptide 10 ug/ml, 20 hr; for No. of subjects responding: IFN-γ; for Magnitude of response: IFN-γ spots (FIG. 1: SFC/10^6 PBMC; no unit in table). As for the experimental part: To define the targets of HCMV-specific T cell epitopes recognized in healthy adults, the inventors screened PBMCs of 19 subjects, 10 males and 9 females, recruited from San Diego blood bank (SDBB). The HCMV seropositivity of all the subjects was confirmed by IgG ELISA (FIG. 6A). A total of 2593 HCMV peptides covering a total of 563 ORFs (1) were tested. However, as many of these predicted ORFs overlapped 100% with others, as they were internal to longer ORFs, these 563 contained 359 completely unique ORFs composed of ˜150“canonical” ORFs, and an additional ˜200 identified by ribosomal RNA profiling (1). These peptides corresponded to predicted dominant epitopes, based on a bioinformatic method that predicts promiscuous binding to HLA class II molecules (40). Each of the ORFs above was covered by multiple predicted epitopes (with a minimum of at least 2), with the exception of very small ORFs (less than 15-20 amino acid residues), in which case at least one peptide was synthetized. The 2593 peptides were arranged in 89 pools of 28-30 15-mer peptides. PBMC reactivity of each of the 89 pools was assayed directly ex vivo using an IFN-γ Fluorospot assay.
For the initial CMV ORF screen, the responses of 19 CMV-seropositive subjects were evaluated. PBMCs were stimulated with 89 pools covering 563 ORFs of HCMV. Each pool comprised of 28-30 15-mer peptides overlapping by 10 residues. PBMCs that were found reactive to a pool were further tested against individual peptides contained in the pool using IFN-γ Fluorospot assay.
PBMC were thawed, washed and counted for viability using the trypan blue exclusion method. 200,000 cells were plated in triplicates and stimulated with pools (2 ug/ml) or peptides (10 ug/ml), PHA (10 ug/ml) or medium containing equivalent amount of DMSO in 96-well plates (Immubilion-P, Millipore) previously coated with anti IFN-γ antibody (1-DIK, Mabtech, Stockholm, Sweden). After 20 hr incubation at 37° C., cells were discarded and wells were washed six times with PBS/0.05% Tween 20 using an automated plate washer and further incubated with IFN-γ antibody (7-B6-1-FS-BAM) for 2 hrs at room temperature. After incubation, wells were washed and incubated with fluorophore conjugated anti-BAM-490 antibody for 1 hr at room temperature. Finally, the plates were washed and incubated with fluorescence enhancer for 15 min, blotted dry and fluorescent spots were counted by computer assisted image analysis (IRIS Fluorospot reader, Mabtech, Sweden).
Each pool or peptide was considered positive compared to the background that had equivalent amount of DMSO based on the following criteria: (i) 20 or more spot forming cells (SFC) per 10^6 PBMC after background subtraction, (ii) the stimulation index greater than 2, and (iii) p<0.05 by student's t test or Poisson distribution test

Where no end group is shown, it is not given here.

30 (HLLRNIKTAFGMRVL) [compound 30]: the “No. of subjects responding” value is 2 and the Magnitude of response came to 1093.

With 154 (RCCTLRFRRRCRARC) [compound 154], the “No. of subjects responding” value amounted to 2 and the Magnitude of response came out at 713.

In the case of “119 (APFRVAAAGETPLGR; ends and bridges not checked) [compound 119]”, the “No. of subjects responding” value was determined as 6 and the Magnitude of response amounted to 1089.

For the substance 29 (KRYFRPLLRAWSLGL) [compound 29], the “No. of subjects responding” value was 4 and the Magnitude of response amounted to 1388.

Take 208 (PQRLLLTALAIWQRT) [compound 208]: the “No. of subjects responding” value is 1 and the Magnitude of response was 983.

For the substance 91 (RSSWRASCVEVPKKP) [compound 91], the “No. of subjects responding” value is on record as 1 and the Magnitude of response was determined as 370.

As for 165 (LVKQIKVRVDMVRHR) [compound 165], the “No. of subjects responding” value worked out at 3 and the Magnitude of response amounted to 580.

As for “5 (QGATYQLSIVRQAMQ; ends and bridges not checked) [compound 5]”, the “No. of subjects responding” value came to 1 and the Magnitude of response is given as 650.

Regarding 140 (MSTKRSTVPWYPITQ) [compound 140], the “No. of subjects responding” value came out at 3 and the Magnitude of response turned out to be 477.

As to 171 (ITKPEVISVMKRRIE) [compound 171], the “No. of subjects responding” value was 1 and the Magnitude of response is 1600.

For 27 (EAYVRINAGQVLPVV) [compound 27], the “No. of subjects responding” value is listed as 1 and the Magnitude of response came to 1853.

As for 233 (HDPLGLTRFIMRQLM) [compound 233], the “No. of subjects responding” value worked out at 1 and the Magnitude of response is listed as 473.

Turning to 65 (DLKYILTRLEYLYKV) [compound 65], the “No. of subjects responding” value was 1 and the Magnitude of response is 30.

Consider 216 (VSVLYFMPSEPGSAH) [compound 216], for which the “No. of subjects responding” value is given as 1 and the Magnitude of response worked out at 177.

Turning to 187 (LHRRAAVSGRRSLLQ) [compound 187], the “No. of subjects responding” value was determined as 1 and the Magnitude of response amounted to 87.

As to 163 (MFFLAIRDHDTAGGI) [compound 163], the “No. of subjects responding” value was found to be 1 and the Magnitude of response is reported as 1637.

On to “39 (VNAVNKLVYTGRLIM; ends and bridges not checked) [compound 39]”, for which the “No. of subjects responding” value is recorded as 1 and the Magnitude of response stood at 340.

Consider 217 (VFQKTLSMLQGLYLR) [compound 217], for which the “No. of subjects responding” value was determined as 2 and the Magnitude of response is recorded as 327.

Take 78 (KELSKINPSAILSAI) [compound 78]: the “No. of subjects responding” value turned out to be 3 and the Magnitude of response is 18557.

For 170 (VLCCYVLEETSVMLA) [compound 170], the “No. of subjects responding” value stood at 1 and the Magnitude of response turned out to be 93.

For 177 (STPFLMEHTMPVTHP) [compound 177], the “No. of subjects responding” value is given as 4 and the Magnitude of response came out at 740.

For the substance 156 (RVFCLSADWIRFLSL) [compound 156], the “No. of subjects responding” value is 2 and the Magnitude of response worked out at 846.

As for 209 (PWWRRLRVKRPKFPS) [compound 209], the “No. of subjects responding” value worked out at 1 and the Magnitude of response is given as 240.

As for 182 (SYLAVHLRISHRYYH) [compound 182], the “No. of subjects responding” value came out at 1 and the Magnitude of response worked out at 290.

On to “133 (MLIQQYVLSQYYIKK; ends and bridges not checked) [compound 133]”, for which the “No. of subjects responding” value is on record as 1 and the Magnitude of response is recorded as 20.

Take 207 (RWQFAVCAASKTATR) [compound 207]: the “No. of subjects responding” value came out at 1 and the Magnitude of response is 50.

With 96 (TAVSEFMKNTHVLIR) [compound 96], the “No. of subjects responding” value came to 1 and the Magnitude of response amounted to 747.

On to 212 (MNLVMLILALWAPVA) [compound 212], for which the “No. of subjects responding” value stood at 1 and the Magnitude of response is 553.

For the substance 95 (TMRKLKRKQALVKEQ) [compound 95], the “No. of subjects responding” value was determined as 1 and the Magnitude of response worked out at 1563.

As for 145 (VRGGIVENKSVSSVV) [compound 145], the “No. of subjects responding” value was 5 and the Magnitude of response stood at 2691.

For the substance 33 (MLFRPTISNSIPRCR) [compound 33], the “No. of subjects responding” value came out at 1 and the Magnitude of response is recorded as 47.

Regarding 7 (MRTVPVTKLYTSRMV) [compound 7], the “No. of subjects responding” value was 1 and the Magnitude of response was 5677.

With 54 (RREAIVRLEKTPTCQ) [compound 54], the “No. of subjects responding” value is given as 2 and the Magnitude of response worked out at 407.

As to 146 (GNLQVTYVRHYLKNH) [compound 146], the “No. of subjects responding” value came to 4 and the Magnitude of response is 655.

With “48 (RRRMVSVTLFSPYSV; ends and bridges not checked) [compound 48]”, the “No. of subjects responding” value is given as 1 and the Magnitude of response amounted to 53.

With 210 (LWYLGDYGAILKIYF) [compound 210], the “No. of subjects responding” value was 1 and the Magnitude of response is recorded as 40.

On to 86 (TMRSVFEMQRIRHGA) [compound 86], for which the “No. of subjects responding” value was determined as 1 and the Magnitude of response is given as 67.

As for 16 (HENGIYYGTRSMRKL) [compound 16], the “No. of subjects responding” value came to 1 and the Magnitude of response is listed as 827.

For the substance “135 (KTQIFNKLFTNRISV; ends and bridges not checked) [compound 135]”, the “No. of subjects responding” value amounted to 1 and the Magnitude of response was determined as 1587.

As to 2 (RYNALTVRSRDSLLL) [compound 2], the “No. of subjects responding” value worked out at 2 and the Magnitude of response amounted to 204.

For 173 (EAIVAYTLATAGASS) [compound 173], the “No. of subjects responding” value was 3 and the Magnitude of response was determined as 19333.

For the substance 180 (VVVGIVLCLSLASTV) [compound 180], the “No. of subjects responding” value was found to be 1 and the Magnitude of response is given as 1417.

As for 21 (ALALHFLTSRKGVTD) [compound 21], the “No. of subjects responding” value is on record as 1 and the Magnitude of response is on record as 40.

Turning to “50 (WPERCFIQLRSRSAL; ends and bridges not checked) [compound 50]”, the “No. of subjects responding” value is recorded as 3 and the Magnitude of response was 313.

On to 215 (VCAFCWLVLPHRLEQ) [compound 215], for which the “No. of subjects responding” value was 1 and the Magnitude of response stood at 1960.

56 (RHRFLWQRRRRARLL) [compound 56]: the “No. of subjects responding” value amounted to 1 and the Magnitude of response turned out to be 1000.

Take 219 (WFLVMREQAAIPQIY) [compound 219]: the “No. of subjects responding” value came out at 4 and the Magnitude of response stood at 1100.

In the case of “12 (ARRLWILSLLAVTLT; ends and bridges not checked) [compound 12]”, the “No. of subjects responding” value was 1 and the Magnitude of response was determined as 100.

Turning to “13 (LLAVTLTVALAAPSQ; ends and bridges not checked) [compound 13]”, the “No. of subjects responding” value was found to be 2 and the Magnitude of response was 6420.

Regarding 144 (TFDVRQFVFDNARLV) [compound 144], the “No. of subjects responding” value came to 6 and the Magnitude of response came to 13736.

14 (KDRCLVIRRRWRLVR) [compound 14]: the “No. of subjects responding” value turned out to be 1 and the Magnitude of response was 60.

In the case of 222 (PSQEILLLCARHLDE) [compound 222], the “No. of subjects responding” value is given as 3 and the Magnitude of response was 110.

On to 90 (VELCLGAGAGHVVVV) [compound 90], for which the “No. of subjects responding” value is 1 and the Magnitude of response is listed as 383.

For the origin of these results see patent publication US20250332249A1, “CYTOM[…] CELL EPITOPES AND USES THEREOF” (LA JOLLA INSTITUTE FOR IMMUNOLOGY, priority 2021, published 2025).
